US20230021483A1, “[…] […] METHOD AND CLASSIFICATION OF PHARMACEUTICAL COMPONENTS BY USING TRANSCRIPTOMES” (National Institutes of Biomedical Innovation, Health and …, priority 2016, published 2023)
Several values for one entry are separate records, joined by “and”; a condition that tells them apart may be missing. Identical values can stand only once.

Tests used:
liver = conditions: mouse, in vivo, ip
Description: After 3 hours/6 hours, blood and liver were collected on day 1, day 2, day 3, and day 5. Hematoxylin and eosin staining was applied to the collected liver and histologically analyzed (FIG. 20).

[1] = system: inguinal lymph nodes (LN); assay: Whole organ transcriptome (GeneChip microarray) of draining inguinal lymph nodes 6 h after adjuvant administration: sDEGs, gene modules, hierarchical clustering; assay type: in vivo, C57BL/6 mice; conditions: lymph node; as to adjuvant group (cluster) in LN: key: G1 (interferon signaling); G2 (metabolism of lipids and lipoproteins); G3 (response to stress); G4 (response to wounding); G5 (phosphate-containing compound metabolic process); G6 (phagosome)
[2] = system: preferentially upregulated genes in LV, SP, LN; assay: Z-score-based differential gene expression analysis (adjuvant group- or adjuvant-associated genes, 40 module mapping, TargetMine annotation); assay type: in vivo, C57BL/6 mice; conditions: liver (LV); gene group G1, module 20; individual mice x1-x3; route ID/IP/IN
In short: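 Gene groups for each organ were built from combined z-score cutoffs across adjuvants, ranging from z>1 to z>3. Scores came from fold changes standardized per gene over the whole organ data set, with the three replicate z-scores added per adjuvant; sums above 3 marked preferential expression.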

For “heptanoyl-γ-D-glutamyl-(L)-meso-diaminopimelyl-(D)-alanine [FK565]”, the “histological finding in liver (hematoxylin and eosin)” value (liver) was “liver damage”, the “adjuvant group (cluster) in LN” value ([1]; hierarchical clustering) was “G3” and the “Number of gene probes with statistically significant changes (sDEGs), LN, Down” value ([1]; i.d. administration, fold change <0.667, p<0.01, customized PA call=1, 6 h after adjuvant) was 306. For the same substance, the “Number of gene probes with statistically significant changes (sDEGs), LN, Up” value ([1]; i.d. administration, fold change >1.5, p<0.01, customized PA call=1, 6 h after adjuvant) was 526, the “Z score of gene expression, Adar (probe 1425405_a_at)” value [2] was −0.4 (2×) and −0.5 and the “Z score of gene expression, Adar (probe 1434268_at)” value [2] was −0.1. For the same substance, the “Z score of gene expression, Ddx58 (probe 1436562_at)” value [2] was −0.2 (2×) and −0.3, the “Z score of gene expression, Ddx58 (probe 1456890_at)” value [2] was −0.5 (2×) and −0.1 and the “Z score of gene expression, Eif2ak2 (probe 1422005_at)” value [2] was 0.05 and 0.09 and −0.1. For the same substance, the “Z score of gene expression, G3bp2 (probe 1421323_a_at)” value [2] was −0.3 (2×) and −0.2, the “Z score of gene expression, Gm9706///Isg15 (probe 1431591_s_at)” value [2] was −0.1 (2×) and −0.2 and the “Z score of gene expression, H2-T10///H2-T22///H2-T9 (probe 1449875_s_at)” value [2] was 0.21 and 0.04 and 0.29. For the same substance, the “Z score of gene expression, Ifih1 (probe 1426276_at)” value [2] was −0.3, the “Z score of gene expression, Ifit1 (probe 1449025_at)” value [2] was −0.4 and the “Z score of gene expression, Ifit1 (probe 1450783_at)” value [2] was −0.4. The “Z score of gene expression, Irf7 (probe 1417244_a_at)” value [2] was −0.3 (2×) and −0.4, the “Z score of gene expression, Irgm1 (probe 1418825_at)” value [2] was 0.07 and 0.13 and 0.08 and the “Z score of gene expression, Mndal (probe 1426906_at)” value [2] was −0.4 and −0.5 (2×). The “Z score of gene expression, Pml (probe 1448757_at)” value [2] was −0.5 and −0.6 and −0.8, the “Z score of gene expression, Pml (probe 1456103_at)” value [2] was −0.5 and the “Z score of gene expression, Rnf213 (probe 1455500_at)” value [2] was 0.02 and 0.06 and 0.03. For the same substance, the “Z score of gene expression, Rsad2 (probe 1436058_at)” value [2] was −0.4, the “Z score of gene expression, Shisa5 (probe 1423986_a_at)” value [2] was −0.1 and 0.01 and 0.18 and the “Z score of gene expression, Shisa5 (probe 1437503_a_at)” value [2] was −0.2 and −0.3 and −0.1. The “Z score of gene expression, Stat1 (probe 1450033_a_at)” value [2] was −0.1 and −0 and 0, the “Z score of gene expression, Stat1 (probe 1450034_at)” value [2] was −0.1 (2×) and −0 and the “Z score of gene expression, Tdrd7 (probe 1426716_at)” value [2] was −0.5 (2×) and −0.4. For the same substance, the “Z score of gene expression, Tor1aip2 (probe 1418115_s_at)” value [2] was −0.6 and −0.5 (2×), the “Z score of gene expression, Tor1aip2 (probe 1418116_at)” value [2] was −0.7 (2×) and −0.9 and the “Z score of gene expression, Tor1aip2 (probe 1435526_at)” value [2] was −0.8 and −0.9 (2×). For the same substance, the “Z score of gene expression, Trim12a (probe 1437432_a_at)” value [2] was 0.1 and −0.1 and −0.2 and the “Z score of gene expression, Uba7 (probe 1426970_a_at)” value [2] was −0.4 and −0.5 and −0.3.
